In ChEMBL document CHEMBL1124750, “Diels-Alder adducts of vinyl porphyrins: synthesis and in vivo photodynamic effect against a rat bladder tumor” (1990) one finds Dose data, which are given here for six compounds.

For assay [1], the species on record is Rattus norvegicus. The assay can be described thus: Dose required in phototherapy for twelve days in tumor size detected in male Fischer CDF (F-344)/CrlBr rats. It counts as functional.
For assay [2], the species on record is Rattus norvegicus. The assay can be described thus: Dose required in phototherapy for twelve days and 73% control in tumor size in male Fischer CDF (F-344)/CrlBr rats. The class given is functional.
The species named for assay [3] is Rattus norvegicus. Description: Compound evaluated for cytotoxicity in male Fischer CDF (F-344)/CrlBr rats. It counts as functional.
The species named for assay [4] is Rattus norvegicus. The assay can be described thus: Dose required in phototherapy for twelve days and free of palpable tumor in 100% of male Fischer CDF (F-344)/CrlBr rats.
For assay [5], the species on record is Rattus norvegicus. Description: Dose required in phototherapy for twelve days and palpable tumor detected in 50% of male Fischer CDF (F-344)/CrlBr rats. It counts as functional.

Consider `C=Cc1c(C)c2cc3nc(cc4nc(cc5[nH]c(cc1[nH]2)C1(C)C5=CCC(C(=O)OC)=C1C(=O)OC)C(C)=C4CCC(=O)OC)C(CCC(=O)OC)=C3C` (stereo unspecified), for which the Dose in the assay listed under Rattus norvegicus [1] was 5 mg/kg.
The compound `C=Cc1c(C)c2cc3nc(cc4nc(cc5[nH]c(cc1[nH]2)C1(C)C5=CCC(C#N)(C#N)C1(C#N)C#N)C(C)=C4CCC(=O)OC)C(CCC(=O)OC)=C3C` (stereo unspecified) returned a Dose in the assay filed under Rattus norvegicus [2] of 1 mg/kg.
For `CCC1=C(CC)c2cc3[nH]c(cc4nc(cc5[nH]c(cc1n2)C1=CCC(C#N)(C#N)C(C#N)(C#N)C15CC)C(CC)=C4CC)c(CC)c3CC` (stereo unspecified), the Dose in the assay filed under Rattus norvegicus [3] is 1 mg/kg.
As for `CCC1=C(C)c2cc3[nH]c(cc4nc(cc5[nH]c(cc1n2)C1(C)C5=CCC(C(=O)OC)=C1C(=O)OC)C(C)=C4CC)c(C)c3CC` (stereo unspecified), in the assay listed under Rattus norvegicus [4], the Dose was 1 mg/kg.
Turning to `CCC1=C(CC)c2cc3[nH]c(cc4nc(cc5[nH]c(cc1n2)C1=CCC(C(=O)OC)=C(C(=O)OC)C15CC)C(CC)=C4CC)c(CC)c3CC` (stereo unspecified), in the assay filed under Rattus norvegicus [5], the Dose came out at 1 mg/kg.
Consider `CCC1=C(C)c2cc3[nH]c(cc4[nH]c(cc5nc(cc1n2)C(C)=C5CC)C1(C)C4=CCC(C#N)(C#N)C1(C#N)C#N)c(C)c3CC` (stereo unspecified), for which the Dose in the assay filed under Rattus norvegicus [3] stood at 1 mg/kg.
